Laboratory results published in ChEMBL document CHEMBL3885861, “Open TG-GATES”.

Species on record: Rattus norvegicus
Experiment: Open TG-GATES - Regimen: Daily Repeat
Assay type: toxicity, organism-based, Sprague-Dawley
Design: regimen Daily Repeat, gender Male, age 6 weeks
Settings: in vivo, po, route gavage; for KIDNEY_L / KIDNEY_R / KIDNEY_TOTAL: tissue Kidney; for LIVER: tissue Liver; for ALP / ALT / AST / BUN / CRE / Ca / DBIL / GLC / IP / K / Na / PL / RALB / TBIL / TC / TG / TP / gamma-GTP / LDH: tissue Plasma
[1] = 15 mg/kg, […], tissue Blood, dose level Low, time 28 day
[2] = 15 mg/kg, […], dose level Low, time 7 day
[3] = 15 mg/kg, […], dose level Low, time 14 day
[4] = 15 mg/kg, […], dose level Low, time 28 day

Oc1ncnc2[nH]ncc12 [ALLOPURINOL] was tested, and the Hb [1] was 15.4 g/dL, the Ht [1] was 46% and the Lym [1] was 83.8%. The MCH [1] was 19.4 pg, the MCHC [1] was 33.6% and the MCV [1] was 57.8 fL. It also gave a Mono [1] of 2.8%, a Neu [1] of 12.4% and a PT [1] of 12.1 s. For the same compound, the RBC [1] was 795.8 x10_4/ul, the Ret [1] was 2.4% and the WBC [1] was 167 x10_2/uL. The KIDNEY_L [2] was 1.2 g, the KIDNEY_R [2] was 1.2 g and the KIDNEY_TOTAL [2] was 2.3 g. For the same compound, the KIDNEY_L [3] was 1.3 g, the KIDNEY_R [3] was 1.3 g and the KIDNEY_TOTAL [3] was 2.6 g. It also gave a KIDNEY_L [4] of 1.4 g, a KIDNEY_R [4] of 1.4 g and a KIDNEY_TOTAL [4] of 2.9 g. The LIVER [2] was 11.7 g, the LIVER [3] was 15.3 g and the LIVER [4] was 16.6 g. For the same compound, the ALP [2] was 753 IU/L, the ALT [2] was 25.2 IU/L and the AST [2] was 56.6 IU/L. It also gave a BUN [2] of 21.6 mg/dL, a CRE [2] of 0.6 mg/dL and a Ca [2] of 11.3 mg/dL. It also gave a DBIL [2] of 0.012 mg/dL, a GLC [2] of 192.6 mg/dL and an IP [2] of 8.6 mg/dL. It also gave a K [2] of 4.5 meq/L, a Na [2] of 137.8 meq/L and a PL [2] of 156 mg/dL. It also gave an RALB [2] of 4.2 g/dL, a TBIL [2] of 0.3 mg/dL and a TC [2] of 81.2 mg/dL. The TG [2] was 85.2 mg/dL, the TP [2] was 6.2 g/dL and the gamma-GTP [2] was 2.4 IU/L. For the same compound, the ALP [3] was 823.2 IU/L, the ALT [3] was 27.2 IU/L and the AST [3] was 56.8 IU/L. The BUN [3] was 19.4 mg/dL, the CRE [3] was 0.6 mg/dL and the DBIL [3] was 0 mg/dL. It also gave a GLC [3] of 185.4 mg/dL, an IP [3] of 7.5 mg/dL and a K [3] of 4.4 meq/L. It also gave an LDH [3] of 74.8 IU/L, a Na [3] of 138.8 meq/L and a PL [3] of 158.6 mg/dL. It also gave an RALB [3] of 3.9 g/dL, a TBIL [3] of 0.2 mg/dL and a TC [3] of 69.8 mg/dL. For the same compound, the TG [3] was 161.6 mg/dL, the TP [3] was 6.2 g/dL and the gamma-GTP [3] was 2 IU/L. The ALP [4] was 525.8 IU/L, the ALT [4] was 29.4 IU/L and the AST [4] was 59.2 IU/L. It also gave a BUN [4] of 20.6 mg/dL, a CRE [4] of 0.6 mg/dL and a Ca [4] of 11 mg/dL. It also gave a DBIL [4] of 0.014 mg/dL, a GLC [4] of 188.4 mg/dL and an IP [4] of 6.9 mg/dL. The K [4] was 4.8 meq/L, the LDH [4] was 74.4 IU/L and the Na [4] was 139.6 meq/L. The PL [4] was 153.4 mg/dL, the RALB [4] was 4.1 g/dL and the TBIL [4] was 0.3 mg/dL. For the same compound, the TC [4] was 70 mg/dL, the TG [4] was 160.6 mg/dL and the TP [4] was 6.6 g/dL. For the same compound, the gamma-GTP [4] was 2.8 IU/L and the TERMINAL_BW (50 mg/kg, 72 h, dose level Middle, time 3 day) was 239.5 g.
